Target: T1, human liver glycogen phosphorylase a (HLGPa) (Homo sapiens, UniProt P06737)
T1 construct: creating a full-length cDNA fused at the 5′ end to codons for methionine-glycine-alanine-histidine; 6xHis tag (leader Met-Gly-Ala-His6-Gly-Gly) (N); made in house; host or cells: E. coli (bacterial expression plasmid pTXK1007LTev)
T1 sequence (P06737 2-847 limits assumed): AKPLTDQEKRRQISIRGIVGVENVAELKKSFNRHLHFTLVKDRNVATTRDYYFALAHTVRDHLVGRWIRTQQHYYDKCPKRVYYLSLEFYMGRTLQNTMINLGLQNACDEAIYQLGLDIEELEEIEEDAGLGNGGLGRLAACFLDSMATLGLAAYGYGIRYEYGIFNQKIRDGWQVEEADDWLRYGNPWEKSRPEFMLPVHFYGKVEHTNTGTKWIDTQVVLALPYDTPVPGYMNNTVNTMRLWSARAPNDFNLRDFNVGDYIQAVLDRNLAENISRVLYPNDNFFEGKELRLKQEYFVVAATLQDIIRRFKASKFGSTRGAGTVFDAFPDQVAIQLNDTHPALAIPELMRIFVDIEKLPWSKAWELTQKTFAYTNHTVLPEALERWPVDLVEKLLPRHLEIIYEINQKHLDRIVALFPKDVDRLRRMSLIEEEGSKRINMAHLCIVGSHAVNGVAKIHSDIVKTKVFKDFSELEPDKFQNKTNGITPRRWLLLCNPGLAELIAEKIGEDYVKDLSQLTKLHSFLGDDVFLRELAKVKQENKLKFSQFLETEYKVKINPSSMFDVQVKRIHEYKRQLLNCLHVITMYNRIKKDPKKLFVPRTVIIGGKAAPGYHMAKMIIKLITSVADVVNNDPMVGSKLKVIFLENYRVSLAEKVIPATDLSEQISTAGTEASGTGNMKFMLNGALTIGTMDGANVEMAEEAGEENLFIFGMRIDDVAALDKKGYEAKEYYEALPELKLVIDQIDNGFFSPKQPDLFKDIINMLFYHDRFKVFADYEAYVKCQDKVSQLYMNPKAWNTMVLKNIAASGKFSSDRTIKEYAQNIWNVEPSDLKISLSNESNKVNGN
Assay: Human liver glycogen phosphorylase a enzymatic activity assay (coupled, fluorescent resorufin readout, with and without 10 mM glucose)
Assay type: biochemical
Conditions: human liver glycogen phosphorylase a; table does not say whether with or without 10 mM glucose

Compound | IC50 [nM]
Cc1cc(C)c(NC(=O)Nc2nc3ccccc3cc2C(=O)N[C@H](C(=O)O)C2CCCCC2)c(C)c1 [Example 297, (2S)-cyclohexyl({[2-({[(2,4,6-trimethylphenyl)amino]carbonyl}amino)-3-quinolinyl]carbonyl}amino)ethanoic acid] | 15600
O=C(Nc1cc2ccccc2nc1C(=O)N[C@H](C(=O)O)C1CCCCC1)Nc1c(Cl)cccc1Cl [Example 298, (2S)-Cyclohexyl({[3-({[(2,6-dichlorophenyl)amino]carbonyl}amino)-2-quinolinyl]carbonyl}amino)ethanoic acid] | 150
O=C(Nc1cc2ccccc2nc1C(=O)N[C@H](C(=O)O)C1CCCCC1)Nc1c(Cl)cc(Cl)cc1Cl [Example 299, (2S)-Cyclohexyl({[3-({[(2,4,6-trichlorophenyl)amino]carbonyl}amino)-2-quinolinyl]carbonyl}amino)ethanoic acid] | 480
Cc1cc(C)c(NC(=O)Nc2cc3ccccc3nc2C(=O)N[C@H](C(=O)O)C2CCCCC2)c(C)c1 [Example 300, (2S)-Cyclohexyl({[3-({[(2,4,6-trimethylphenyl)amino]carbonyl}amino)-2-quinolinyl]carbonyl}amino)ethanoic acid] | 27
O=C(Nc1cc2ccccc2cc1C(=O)NC1(C(=O)O)CCCCCC1)Nc1c(Cl)cc(Cl)cc1Cl [Example 301, 1-({[3-({[(2,4,6-Trichlorophenyl)amino]carbonyl}amino)-2-naphthalenyl]carbonyl}amino)cycloheptanecarboxylic acid] | 350
O=C(Nc1cc2ccccc2cc1C(=O)NC1(C(=O)O)CCCCCCC1)Nc1c(Cl)cc(Cl)cc1Cl [Example 303, 1-({[3-({[(2,4,6-trichlorophenyl)amino]carbonyl}amino)-2-naphthalenyl]carbonyl}amino)cyclooctanecarboxylic acid] | 57
Cc1cc(C)c(NC(=O)Nc2cc3ccccc3nc2C(=O)NC2(C(=O)O)CCCCCC2)c(C)c1 [Example 306, 1-({[3-({[(2,4,6-trimethylphenyl)amino]carbonyl}amino)-2-quinolinyl]carbonyl}amino)cycloheptanecarboxylic acid] | 11
Cc1cc(C)c(NC(=O)Nc2cc3ccccc3nc2C(=O)NC2(C(=O)O)CCCCCCC2)c(C)c1 [Example 307, 1-({[3-({[(2,4,6-trimethylphenyl)amino]carbonyl}amino)-2-quinolinyl]carbonyl}amino)cyclooctanecarboxylic acid] | 2
Cc1cc(Br)cc(C)c1NC(=O)Nc1cc2ccccc2cc1C(=O)NC1(C(=O)O)CCCCCC1 [Example 308, 1-({[3-({[(4-bromo-2,6-dimethylphenyl)amino]carbonyl}amino)-2-naphthalenyl]carbonyl}amino)cycloheptanecarboxylic acid] | 250
CCCc1cc(C)c(NC(=O)Nc2cc3ccccc3cc2C(=O)NC2(C(=O)O)CCCCCC2)c(C)c1 [Example 309, 1-({[3-({[(2,6-dimethyl-4-propylphenyl)amino]carbonyl}amino)-2-naphthalenyl]carbonyl}amino)cycloheptanecarboxylic acid] | 11
Cc1cc(C)c(NC(=O)Nc2cc3ccccc3nc2C(=O)N[C@](C)(C(=O)O)C2CCCCC2)c(C)c1 [Example 312, 2-Cyclohexyl-N-{[3-({[(2,4,6-trimethylphenyl)amino]carbonyl}amino)-2-quinolinyl]carbonyl}-D-alanine] | 230
CCCC[C@H](NC(=O)c1nc2ccccc2cc1NC(=O)Nc1c(C)cc(C)cc1C)C(=O)O [Example 313, N-{[3-({[(2,4,6-trimethylphenyl)amino]carbonyl}amino)-2-quinolinyl]carbonyl}-L-norleucine] | 160
CCCC[C@H](NC(=O)c1nc2ccccc2cc1NC(=O)Nc1c(Cl)cccc1Cl)C(=O)O [Example 314, N-{[3-({[(2,6-dichlorophenyl)amino]carbonyl}amino)-2-quinolinyl]carbonyl}-L-norleucine] | 1800
CCCC(CCC)(NC(=O)c1cc2ccccc2cc1NC(=O)Nc1c(Cl)cccc1Cl)C(=O)O [Example 316, N-{[3-({[(2,6-dichlorophenyl)amino]carbonyl}amino)-2-naphthalenyl]carbonyl}-2-propylnorvaline] | 360
Cc1cc(C)c(NC(=O)Nc2cc(Cl)cnc2C(=O)N[C@H](C(=O)O)C2CCCCC2)c(C)c1 [Example 317, (2S)-({[5-chloro-3-({[(2,4,6-trimethylphenyl)amino]carbonyl}amino)-2-pyridinyl]carbonyl}amino)(cyclohexyl)ethanoic acid] | 920
Cc1cc(C)c(NC(=O)Nc2cc(Cl)cnc2C(=O)NC2(C(=O)O)CCCCCC2)c(C)c1 [Example 319, 1-({[5-chloro-3-({[(2,4,6-trimethylphenyl)amino]carbonyl}amino)-2-pyridinyl]carbonyl}amino)cycloheptanecarboxylic acid] | 470
CCCc1cc(C)c(NC(=O)Nc2cc(Cl)cnc2C(=O)NC2(C(=O)O)CCCCCCC2)c(C)c1 [Example 320, 1-({[5-Chloro-3-({[(2,6-dimethyl-4-propylphenyl)amino]carbonyl}amino)-2-pyridinyl]carbonyl}amino)cyclooctanecarboxylic acid] | 38
Cc1cc(C)c(NC(=O)Nc2cc(-c3ccccc3)cnc2C(=O)N[C@H](C(=O)O)C2CCCCC2)c(C)c1 [Example 321, (2S)-Cyclohexyl({[5-phenyl-3-({[(2,4,6-trimethylphenyl)amino]carbonyl}amino)-2-pyridinyl]carbonyl}amino)ethanoic acid] | 150
COc1ccc(-c2cnc(C(=O)N[C@H](C(=O)O)C3CCCCC3)c(NC(=O)Nc3c(C)cc(C)cc3C)c2)cc1 [Example 322, (2S)-Cyclohexyl({[5-[4-(methyloxy)phenyl]-3-({[(2,4,6-trimethylphenyl)amino]carbonyl}amino)-2-pyridinyl]carbonyl}amino)ethanoic acid] | 83
COc1ccc(-c2cnc(C(=O)N[C@H](C(=O)O)[C@@H](C)OC(C)(C)C)c(NC(=O)Nc3c(C)cc(C)cc3C)c2)cc1 [Example 323, O-(1,1-dimethylethyl)-N-{[5-[4-(methyloxy)phenyl]-3-({[(2,4,6-trimethylphenyl)amino]carbonyl}amino)-2-pyridinyl]carbonyl}-L-threonine] | 170
Cc1cc(C)c(NC(=O)Nc2cc(-c3ccc(F)c(F)c3)cnc2C(=O)N[C@H](C(=O)O)[C@@H](C)OC(C)(C)C)c(C)c1 [Example 324, N-{[5-(3,4-Difluorophenyl)-3-({[(2,4,6-trimethylphenyl)amino]carbonyl}amino)-2-pyridinyl]carbonyl}-O-(1,1-dimethylethyl)-L-threonine] | 470
COc1ccc(-c2cnc(C(=O)NC3(C(=O)O)CCCCCC3)c(NC(=O)Nc3c(C)cc(C)cc3C)c2)cc1 [Example 325, 1-({[5-[4-(methyloxy)phenyl]-3-({[(2,4,6-trimethylphenyl)amino]carbonyl}amino)-2-pyridinyl]carbonyl}amino)cycloheptanecarboxylic acid] | 31
O=C(Nc1c(Cl)cc(Cl)cc1Cl)Nc1c(C(=O)N[C@H](C(=O)O)C2CCCCC2)oc2cc(Br)ccc12 [Example 326, (2S)-({[6-Bromo-3-({[(2,4,6-trichlorophenyl)amino]carbonyl}amino)-1-benzofuran-2-yl]carbonyl}amino)(cyclohexyl)ethanoic acid] | 7390
O=C(Nc1c(Cl)cccc1Cl)Nc1c(C(=O)N[C@H](C(=O)O)C2CCCCC2)oc2cc(Br)ccc12 [Example 327, (2S)-({[6-Bromo-3-({[(2,6-dichlorophenyl)amino]carbonyl}amino)-1-benzofuran-2-yl]carbonyl}amino)(cyclohexyl)ethanoic acid] | 9870
Cc1cc(C)c(NC(=O)Nc2cc3ccccc3cc2C(=O)NCC2CCCCC2)c(C)c1 [Example 330, N-(cyclohexylmethyl)-3-({[(2,4,6-trimethylphenyl)amino]carbonyl}amino)-2-naphthalenecarboxamide] | 14400
O=C(O)CCN(Cc1ccccc1)C(=O)c1cc2ccccc2cc1NC(=O)Nc1c(Cl)cccc1Cl [Example 331, N-{[3-({[(2,6-dichlorophenyl)amino]carbonyl}amino)-2-naphthalenyl]carbonyl}-N-(phenylmethyl)-beta-alanine] | 2180
O=C(O)CN(Cc1ccccc1)C(=O)c1cc2ccccc2cc1NC(=O)Nc1c(Cl)cc(Cl)cc1Cl [Example 332, N-(phenylmethyl)-N-{[3-({[(2,4,6-trichlorophenyl)amino]carbonyl}amino)-2-naphthalenyl]carbonyl}glycine] | 4350
O=C(Nc1cc2ccccc2cc1C(=O)N1CCCC(C(=O)O)C1)Nc1c(Cl)cccc1Cl (stereo not shown) [Example 333, 1-{[3-({[(2,6-Dichlorophenyl)amino]carbonyl}amino)-2-naphthalenyl]carbonyl}-3-piperidinecarboxylic acid] | 9270
